# Biological target: T1, Voltage-dependent N-type calcium channel subunit alpha-1B (Homo sapiens, UniProt Q00975)
# Assay: Ratio of (R)-roscovitine EC50 to compound EC50 for N-type Cav2.2 channel
# Target sequence in this assay (Q00975 whole entry, looked up): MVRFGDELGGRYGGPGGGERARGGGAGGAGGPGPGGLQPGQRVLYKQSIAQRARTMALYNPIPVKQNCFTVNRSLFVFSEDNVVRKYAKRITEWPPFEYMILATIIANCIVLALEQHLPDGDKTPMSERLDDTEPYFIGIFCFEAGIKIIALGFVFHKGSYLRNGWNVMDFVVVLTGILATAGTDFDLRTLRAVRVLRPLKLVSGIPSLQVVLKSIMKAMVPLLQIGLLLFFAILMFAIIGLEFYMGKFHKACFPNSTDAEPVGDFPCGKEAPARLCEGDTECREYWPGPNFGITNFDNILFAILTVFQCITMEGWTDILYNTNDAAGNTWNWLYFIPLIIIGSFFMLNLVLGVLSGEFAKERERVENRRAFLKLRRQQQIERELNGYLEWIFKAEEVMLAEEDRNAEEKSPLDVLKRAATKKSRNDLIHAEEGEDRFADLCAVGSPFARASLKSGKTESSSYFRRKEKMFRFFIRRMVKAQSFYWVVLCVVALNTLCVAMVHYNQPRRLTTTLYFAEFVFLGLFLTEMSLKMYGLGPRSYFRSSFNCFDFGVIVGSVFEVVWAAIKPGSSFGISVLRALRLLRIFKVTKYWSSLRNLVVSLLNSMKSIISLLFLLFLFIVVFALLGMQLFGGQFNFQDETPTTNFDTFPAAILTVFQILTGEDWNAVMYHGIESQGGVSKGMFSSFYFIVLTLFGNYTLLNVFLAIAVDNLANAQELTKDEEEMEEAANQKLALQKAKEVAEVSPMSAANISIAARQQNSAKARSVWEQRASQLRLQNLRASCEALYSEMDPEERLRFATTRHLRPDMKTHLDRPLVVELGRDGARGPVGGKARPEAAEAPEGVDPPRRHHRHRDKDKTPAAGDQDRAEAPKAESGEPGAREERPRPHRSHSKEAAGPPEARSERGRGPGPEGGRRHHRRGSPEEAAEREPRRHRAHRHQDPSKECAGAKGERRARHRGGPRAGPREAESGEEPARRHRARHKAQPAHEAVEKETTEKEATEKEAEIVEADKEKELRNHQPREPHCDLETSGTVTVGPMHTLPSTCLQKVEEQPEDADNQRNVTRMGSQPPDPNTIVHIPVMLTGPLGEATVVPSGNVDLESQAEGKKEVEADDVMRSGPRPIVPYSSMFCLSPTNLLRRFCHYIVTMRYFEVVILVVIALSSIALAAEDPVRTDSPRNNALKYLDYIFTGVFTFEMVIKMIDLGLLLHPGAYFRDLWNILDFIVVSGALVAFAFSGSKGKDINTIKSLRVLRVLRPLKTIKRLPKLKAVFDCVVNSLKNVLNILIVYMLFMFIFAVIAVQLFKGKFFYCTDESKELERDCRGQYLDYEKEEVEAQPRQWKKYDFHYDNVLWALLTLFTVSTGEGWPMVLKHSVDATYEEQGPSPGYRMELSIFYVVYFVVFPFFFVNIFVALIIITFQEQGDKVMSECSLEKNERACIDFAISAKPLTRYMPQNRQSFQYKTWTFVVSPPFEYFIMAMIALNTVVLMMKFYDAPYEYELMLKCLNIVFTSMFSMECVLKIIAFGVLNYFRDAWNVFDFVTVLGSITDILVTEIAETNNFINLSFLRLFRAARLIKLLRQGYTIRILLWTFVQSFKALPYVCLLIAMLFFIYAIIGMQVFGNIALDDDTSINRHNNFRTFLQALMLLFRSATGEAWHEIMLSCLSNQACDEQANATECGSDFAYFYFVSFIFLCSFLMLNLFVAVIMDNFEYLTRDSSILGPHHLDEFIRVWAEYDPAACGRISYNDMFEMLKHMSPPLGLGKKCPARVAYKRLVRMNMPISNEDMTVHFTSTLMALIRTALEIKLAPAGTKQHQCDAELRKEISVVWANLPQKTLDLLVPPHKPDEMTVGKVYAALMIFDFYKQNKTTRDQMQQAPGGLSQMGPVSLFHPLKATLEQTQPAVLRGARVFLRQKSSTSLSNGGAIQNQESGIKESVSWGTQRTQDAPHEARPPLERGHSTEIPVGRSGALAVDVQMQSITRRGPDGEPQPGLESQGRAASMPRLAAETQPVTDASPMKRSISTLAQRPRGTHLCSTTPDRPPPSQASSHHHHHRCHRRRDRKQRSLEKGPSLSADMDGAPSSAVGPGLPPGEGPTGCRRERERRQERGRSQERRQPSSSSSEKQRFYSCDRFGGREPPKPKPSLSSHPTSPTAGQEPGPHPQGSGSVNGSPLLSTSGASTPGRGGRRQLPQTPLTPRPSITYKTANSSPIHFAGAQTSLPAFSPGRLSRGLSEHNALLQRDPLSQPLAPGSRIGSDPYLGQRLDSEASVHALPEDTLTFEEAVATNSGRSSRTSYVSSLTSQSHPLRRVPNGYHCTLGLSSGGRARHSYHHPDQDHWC
row,Ratio EC50,Compound
1,4,CCCn1cnc2c(NCc3ccc(C)s3)nc(N[C@H](CC)CO)nc21

# Biological target: Mitogen-activated protein kinase 1 (Homo sapiens, UniProt P28482)
# Assay: Inhibition of human MAPK1
row,EC50 [µM],Compound
1,> 20,CCCn1cnc2c(NCc3ccc(C)s3)nc(N[C@H](CC)CO)nc21

# Biological target: Myosin light chain kinase, smooth muscle (Homo sapiens, UniProt Q15746)
# Assay: Inhibition of human MLCK
# Chain of Myosin light chain kinase, smooth muscle (Q15746 whole entry): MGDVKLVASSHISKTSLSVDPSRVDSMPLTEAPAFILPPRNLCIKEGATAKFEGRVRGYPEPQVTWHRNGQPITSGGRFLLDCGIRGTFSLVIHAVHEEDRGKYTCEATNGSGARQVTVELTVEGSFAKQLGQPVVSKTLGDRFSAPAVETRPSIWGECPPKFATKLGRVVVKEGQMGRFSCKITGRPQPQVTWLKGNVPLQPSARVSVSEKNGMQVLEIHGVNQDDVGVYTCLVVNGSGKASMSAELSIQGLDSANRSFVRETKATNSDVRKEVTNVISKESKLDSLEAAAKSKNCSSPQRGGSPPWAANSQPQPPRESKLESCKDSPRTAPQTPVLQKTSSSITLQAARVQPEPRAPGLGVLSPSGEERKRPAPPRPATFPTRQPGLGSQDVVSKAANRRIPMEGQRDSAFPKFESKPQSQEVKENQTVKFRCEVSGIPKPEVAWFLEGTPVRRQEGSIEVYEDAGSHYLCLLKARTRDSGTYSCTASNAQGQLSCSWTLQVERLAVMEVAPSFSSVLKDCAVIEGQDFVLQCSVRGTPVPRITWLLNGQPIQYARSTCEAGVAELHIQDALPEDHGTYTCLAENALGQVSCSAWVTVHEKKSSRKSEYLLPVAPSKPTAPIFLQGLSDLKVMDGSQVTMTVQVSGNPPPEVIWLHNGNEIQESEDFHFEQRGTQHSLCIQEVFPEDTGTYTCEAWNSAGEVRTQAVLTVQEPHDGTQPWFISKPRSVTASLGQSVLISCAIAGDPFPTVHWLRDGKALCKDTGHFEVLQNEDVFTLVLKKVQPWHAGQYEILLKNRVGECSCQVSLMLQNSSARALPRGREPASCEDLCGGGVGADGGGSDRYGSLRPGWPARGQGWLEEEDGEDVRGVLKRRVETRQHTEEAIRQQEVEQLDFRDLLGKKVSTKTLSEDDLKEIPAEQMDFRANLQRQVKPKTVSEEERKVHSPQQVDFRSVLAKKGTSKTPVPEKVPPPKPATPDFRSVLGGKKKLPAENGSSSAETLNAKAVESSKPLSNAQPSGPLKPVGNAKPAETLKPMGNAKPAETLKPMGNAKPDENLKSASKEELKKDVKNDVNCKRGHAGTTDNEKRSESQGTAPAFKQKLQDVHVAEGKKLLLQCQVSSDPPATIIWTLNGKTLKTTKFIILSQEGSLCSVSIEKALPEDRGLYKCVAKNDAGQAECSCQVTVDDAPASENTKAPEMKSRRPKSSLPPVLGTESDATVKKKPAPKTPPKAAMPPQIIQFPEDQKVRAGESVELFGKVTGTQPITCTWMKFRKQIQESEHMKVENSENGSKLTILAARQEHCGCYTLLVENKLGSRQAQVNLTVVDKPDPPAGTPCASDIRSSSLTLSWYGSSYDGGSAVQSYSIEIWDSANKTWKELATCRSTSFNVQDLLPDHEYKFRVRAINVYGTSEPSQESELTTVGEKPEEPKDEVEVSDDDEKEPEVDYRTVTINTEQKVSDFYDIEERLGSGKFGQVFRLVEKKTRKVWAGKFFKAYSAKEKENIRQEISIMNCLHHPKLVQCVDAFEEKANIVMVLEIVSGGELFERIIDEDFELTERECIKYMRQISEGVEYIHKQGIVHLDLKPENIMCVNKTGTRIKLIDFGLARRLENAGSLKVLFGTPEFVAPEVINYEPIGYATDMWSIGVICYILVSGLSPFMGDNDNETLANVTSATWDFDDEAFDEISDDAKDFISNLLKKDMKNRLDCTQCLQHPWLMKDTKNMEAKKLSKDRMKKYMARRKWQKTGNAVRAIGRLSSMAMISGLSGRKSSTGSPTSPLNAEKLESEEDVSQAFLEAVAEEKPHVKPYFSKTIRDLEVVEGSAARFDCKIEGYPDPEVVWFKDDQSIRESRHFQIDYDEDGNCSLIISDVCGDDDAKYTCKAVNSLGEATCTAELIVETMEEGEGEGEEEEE
row,EC50 [µM],Compound
1,> 20,CCCn1cnc2c(NCc3ccc(C)s3)nc(N[C@H](CC)CO)nc21

# Biological target: Cyclin-dependent kinase 5/CDK5 activator 1 (Homo sapiens, UniProt Q00535)
# Assay: Inhibition of human Cdk5/p35 activity
# Assay type: protein-complex assay
# Chain of Cyclin-dependent kinase 5/CDK5 activator 1 (Q00535 whole entry): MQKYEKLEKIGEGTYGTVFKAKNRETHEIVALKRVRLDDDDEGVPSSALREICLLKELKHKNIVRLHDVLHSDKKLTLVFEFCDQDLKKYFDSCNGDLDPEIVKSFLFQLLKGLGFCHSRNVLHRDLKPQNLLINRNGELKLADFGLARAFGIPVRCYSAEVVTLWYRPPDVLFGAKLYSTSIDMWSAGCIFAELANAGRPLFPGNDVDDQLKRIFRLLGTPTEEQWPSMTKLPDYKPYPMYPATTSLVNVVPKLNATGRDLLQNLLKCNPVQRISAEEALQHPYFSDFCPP
# Chain of Cyclin-dependent kinase 5/CDK5 activator 1 (Q15078 whole entry, further chain): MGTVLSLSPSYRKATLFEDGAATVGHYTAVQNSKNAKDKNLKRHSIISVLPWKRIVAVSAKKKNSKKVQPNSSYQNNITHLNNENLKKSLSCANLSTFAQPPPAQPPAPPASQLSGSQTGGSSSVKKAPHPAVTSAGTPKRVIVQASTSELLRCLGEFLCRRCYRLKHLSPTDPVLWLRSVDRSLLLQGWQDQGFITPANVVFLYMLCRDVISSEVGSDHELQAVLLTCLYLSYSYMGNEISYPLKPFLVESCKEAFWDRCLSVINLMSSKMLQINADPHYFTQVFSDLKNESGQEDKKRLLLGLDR
row,EC50 [µM],Compound
1,3.03,CCCn1cnc2c(NCc3ccc(C)s3)nc(N[C@H](CC)CO)nc21

# Biological target: Cyclin-dependent kinase 1/cyclin B1 (Homo sapiens, UniProt P06493)
# Assay: Inhibition of human Cdk1/cyclin B activity
# Assay type: protein-complex assay
row,EC50 [µM],Compound
1,20.6,CCCn1cnc2c(NCc3ccc(C)s3)nc(N[C@H](CC)CO)nc21

# Biological target: Voltage-dependent L-type calcium channel subunit alpha-1D (Homo sapiens, UniProt Q01668)
# Assay: Agonist activity at L-type Cav1.3 expressed in tsA201 cell assessed as calcium current by whole-cell patch clamp method
# Assay type: functional, cell-based
row,EC50 [µM],Compound
1,> 100,CCCn1cnc2c(NCc3ccc(C)s3)nc(N[C@H](CC)CO)nc21

# Biological target: Voltage-dependent P/Q-type calcium channel subunit alpha-1A (Homo sapiens, UniProt O00555)
# Assay: Agonist activity at P/Q-type Cav2.1 expressed in tsA201 cell assessed as calcium current by whole-cell patch clamp method
# Assay type: functional, cell-based
row,EC50 [µM],Compound
1,8.8,CCCn1cnc2c(NCc3ccc(C)s3)nc(N[C@H](CC)CO)nc21

# Biological target: Cyclin-dependent kinase 2/cyclin A (Homo sapiens, UniProt P24941)
# Assay: Inhibition of human Cdk2/cyclin A activity
# Assay type: protein-complex assay
row,EC50 [µM],Compound
1,3.29,CCCn1cnc2c(NCc3ccc(C)s3)nc(N[C@H](CC)CO)nc21
2,3.04,CC[C@H](CO)Nc1nc(NCc2ccc(C)s2)c2ncn(C)c2n1
3,3.63,CCCn1cnc2c(NCC3CC3)nc(N[C@H](CC)CO)nc21

# Biological target: T1, Voltage-dependent N-type calcium channel subunit alpha-1B
# Assay: Agonist activity at N-type Cav2.2 channel expressed in tsA201 cell assessed as calcium current by whole-cell patch clamp method
# Assay type: functional, cell-based
# Target sequence in this assay (Q00975 whole entry): as the sequence (Q00975 whole entry, looked up) above
row,EC50 [µM],Compound
1,> 100,CC[C@H](CO)Nc1nc(NCCc2ccccc2)c2ncn(C(C)C)c2n1
2,14.2,CCCn1cnc2c(NCc3ccccc3)nc(N[C@H](CC)CO)nc21
3,> 100,CC[C@H](CO)Nc1nc(NCc2cccnc2)c2ncn(C)c2n1
4,> 100,CC[C@H](CO)Nc1nc(NCc2cccc(C(F)(F)F)c2)c2ncn(C(C)C)c2n1
5,> 100,CC[C@H](CO)Nc1nc(Nc2ccccc2)c2ncn(C)c2n1
6,> 100,CC[C@H](CO)Nc1nc(NCC2CC2)c2ncn(C)c2n1
7,> 100,CC[C@H](CO)Nc1nc(NCCc2ccccc2)c2ncn(C)c2n1
8,> 100,CC[C@H](CO)Nc1nc(NCc2ccc(-c3ccccc3)cc2)c2ncn(C(C)C)c2n1
9,> 100,CC[C@H](CO)Nc1nc(NCc2cccnc2)c2ncn(C(C)C)c2n1
10,> 1000,O=c1[nH]c2ccccc2c2[nH]c3ccc(Br)cc3c12
11,> 100,CCCn1cnc2c(NCc3cccnc3)nc(N[C@H](CC)CO)nc21
12,7.21,CCCn1cnc2c(NCc3ccc(C)s3)nc(N[C@H](CC)CO)nc21
13,> 1000,Cn1cnc2c(NCc3ccccc3)nc(NCCO)nc21 [OLOMOUCINE]
14,< 100,CC[C@H](CO)Nc1nc(NCc2ccccc2)n2ncc(C(C)C)c2n1
15,> 100,CCCn1cnc2c(NC(c3ccccc3)c3ccccc3)nc(N[C@H](CC)CO)nc21
16,> 100,CCCn1cnc2c(NCCc3ccccc3)nc(N[C@H](CC)CO)nc21
17,> 1000,O=Nc1c(-c2c(O)[nH]c3ccccc23)[nH]c2ccccc12 [INDIRUBIN-3-MONOXIME]

row,EC50 [µM],Compound
1,> 100,CC[C@H](CO)Nc1nc(NCC2CC2)c2ncn(C(C)C)c2n1
2,80,CC[C@H](CO)Nc1nc(NCc2ccccc2O)c2ncn(C(C)C)c2n1 [OLOMOUCINE II]
3,> 1000,Cn1cnc2nc(NCCO)nc(NCc3ccccc3)c21
4,11.3,CC[C@H](CO)Nc1nc(NCc2ccc(C)s2)c2ncn(C(C)C)c2n1
5,30,CC[C@H](CO)Nc1nc(NCc2ccc(C)s2)c2ncn(C)c2n1
6,> 100,CCCn1cnc2c(Nc3ccccc3)nc(N[C@H](CC)CO)nc21
7,> 100,CC[C@H](CO)Nc1nc(NC(c2ccccc2)c2ccccc2)c2ncn(C)c2n1
8,> 1000,CC[C@H](CO)Nc1nc(N(C)Cc2ccccc2)c2ncn(C(C)C)c2n1
9,> 100,CCCn1cnc2c(NCc3ccc(-c4ccccc4)cc3)nc(N[C@H](CC)CO)nc21
10,> 100,CC[C@H](CO)Nc1nc(NCc2ccc(-c3ccccc3)cc2)c2ncn(C)c2n1
11,> 100,CCCn1cnc2c(NCc3ccc(C(F)(F)F)cc3)nc(N[C@H](CC)CO)nc21
12,> 1000,CC[C@H](CO)Nc1nc(N(Cc2ccccc2)Cc2ccccc2)c2ncn(C(C)C)c2n1
13,> 100,CC[C@H](CO)Nc1nc(NC(c2ccccc2)c2ccccc2)c2ncn(C(C)C)c2n1
14,> 70,CC[C@H](CO)Nc1nc(NCc2ccccc2)c2ncn(C)c2n1
15,> 100,CCCn1cnc2c(NCC3CC3)nc(N[C@H](CC)CO)nc21
16,> 1000,CC(C)n1cnc2c(NCc3ccccc3)nc(NCCO)nc21
17,> 1000,CN(C)CCNc1nc(NCc2ccccc2)c2ncn(C)c2n1

row,Compound,EC50 [µM]
1,CC(C)n1cnc2c(NCc3ccccc3)nc(NCCCO)nc21 [BOHEMINE],> 1000

# — ChEMBL document CHEMBL2203054, “Synthesis and biological evaluation of a selective N- and p/q-type calcium channel agonist” (ACS Med Chem Lett, 2012)
